Source: PMC7150870 (Toxins, 2020)
Like-named read-outs stand apart in the source and are kept apart here. Marks after values point to notes of the source that are not given here.

Key:
[1] = system: Caco-2 cells
[2] = system: HEK 293T cells
[3] = system: HepG2, Caco-2, RAW 264.7, and HEK 293T cells
[4] = system: HEK293T; type: cell-based, human
[5] = system: cells; conditions: cited from earlier work
[6] = system: human colon adenocarcinoma HT29 cells; conditions: cited from earlier work
[7] = system: epithelial cell layers; conditions: cited from earlier work
[8] = system: RAW 264.7; type: cell-based, mouse
[9] = system: HEK293T; type: cell-based, human; remark: listed apart in the source
[10] = system: Caco-2; type: cell-based, human
[11] = system: HepG2; type: cell-based, human
[12] = system: HEK 293T cells; type: cell-based, human
[13] = system: HEK293T cells; type: cell-based, human; conditions: read-out: IC50 halving the HEK293T cells viability
[14] = human (Caco-2), mouse (RAW 264.7)

In the case of `CC(C)C[C@@H]1NC(=O)[C@H](C)N(C)C(=O)CNC(=O)/C(=C/c2ccccc2)N(C)C1=O` [TEN, tentoxin], the “metabolites found by non-target U-HPLC-MS analysis” value [1] is reported as “metabolite M1, metabolite M2, and metabolite M3”, the “transepithelial transport, Apical Medium” value [1] is reported as 28.07 ± 0.62^abc % and the “transepithelial transport, Basolateral Medium” value [1] is reported as 7.25 ± 0.72^ab %. For the same molecule, the “transepithelial transport, Caco-2 Cells” value [1] was 0.00 ± 0.00^a %, the “transepithelial transport, Raw 264.7 Cells” value [1] was 0.00 ± 0.00^a % and the “transepithelial transport, Total” value [1] was 35.33 ± 0.10^ab %. For the same molecule, the “percentage of DNA in comet tail with respect to the negative control” value [2] was “no significant DNA damage”, the IC50 [3] was > 50 nM and the “combination index, mixture of DAS (6.58 nM)” value (from here on “combination index … (6.58 nM)”) [4] was 0.92 ± 0.17 Add. The “combination index, mixture of HT-2 (21.22 nM)” value (shortened to “combination index … (21.22 nM)”) [4] was 0.94 ± 0.04 Add, the “combination index, mixture of T-2 (3.87 nM)” value (from here on “combination index … (3.87 nM)”) [4] was 0.92 ± 0.07 Add and the “type of interaction, mixture of DAS (6.58 nM)” value (shortened to “type of interaction … (6.58 nM)”) [4] was 0.92 ± 0.17 Add (key: Syn: Combination index (CI) < 0.9; Add: 0.9 ≤ CI ≤ 1; Ant: CI > 1). The “type of interaction, mixture of HT-2 (21.22 nM)” value (from here on “type of interaction … (21.22 nM)”) [4] was 0.94 ± 0.04 Add (key: Syn: Combination index (CI) < 0.9; Add: 0.9 ≤ CI ≤ 1; Ant: CI > 1) and the “type of interaction, mixture of T-2 (3.87 nM)” value (shortened to “type of interaction … (3.87 nM)”) [4] was 0.92 ± 0.07 Add (key: Syn: Combination index (CI) < 0.9; Add: 0.9 ≤ CI ≤ 1; Ant: CI > 1).

In the case of beauvericin, the “concentration with statistically significant decrease in viability of cells” value [5] is listed as 3 µM, the “combination index … (6.58 nM)” value [4] is listed as 0.96 ± 0.04 Add and the “combination index … (21.22 nM)” value [4] is listed as 0.91 ± 0.04 Add. For the same molecule, the “combination index … (3.87 nM)” value [4] was 0.95 ± 0.07 Add, the “type of interaction … (6.58 nM)” value [4] was 0.96 ± 0.04 Add (key: Syn: Combination index (CI) < 0.9; Add: 0.9 ≤ CI ≤ 1; Ant: CI > 1) and the “type of interaction … (21.22 nM)” value [4] was 0.91 ± 0.04 Add (key: Syn: Combination index (CI) < 0.9; Add: 0.9 ≤ CI ≤ 1; Ant: CI > 1). For the same molecule, the “type of interaction … (3.87 nM)” value [4] was 0.95 ± 0.07 Add (key: Syn: Combination index (CI) < 0.9; Add: 0.9 ≤ CI ≤ 1; Ant: CI > 1).

For `COc1cc(O)c2c(=O)oc3cc(O)cc(C)c3c2c1` [AME, alternariol-9-methyl ether], the “concentration with statistically significant decrease in viability of cells” value [5] is listed as 25 µM, the “concentrations significantly increasing the rate of DNA breaks” value [6] is listed as ≥ 1000 nM and the “metabolites found by non-target U-HPLC-MS analysis” value [1] is listed as 3-O-glucuronide, 7-O-glucuronide, and 3-O-sulfate. The “transepithelial transport, Apical Medium” value [1] was 35.92 ± 1.53^c %, the “transepithelial transport, Basolateral Medium” value [1] was 17.68 ± 0.86^bcd % and the “transepithelial transport, Caco-2 Cells” value [1] was 0.49 ± 0.02^ab %. The “transepithelial transport, Raw 264.7 Cells” value [1] was 0.01 ± 0.00^ab %, the “transepithelial transport, Total” value [1] was 53.94 ± 1.59^bc % and the “percentage of DNA in comet tail with respect to the negative control” value [2] was “significantly increased”. The “comet tails (percentage of DNA)” value ([2]; 25 µM, 24 h) was ~42%, the IC50 [3] was > 50 nM and the “combination index … (6.58 nM)” value [4] was 0.90 ± 0.05 Add. The “combination index … (21.22 nM)” value [4] was 0.92 ± 0.06 Add, the “combination index … (3.87 nM)” value [4] was 0.97 ± 0.07 Add and the “type of interaction … (6.58 nM)” value [4] was 0.90 ± 0.05 Add (key: Syn: Combination index (CI) < 0.9; Add: 0.9 ≤ CI ≤ 1; Ant: CI > 1). The “type of interaction … (21.22 nM)” value [4] was 0.92 ± 0.06 Add (key: Syn: Combination index (CI) < 0.9; Add: 0.9 ≤ CI ≤ 1; Ant: CI > 1) and the “type of interaction … (3.87 nM)” value [4] was 0.97 ± 0.07 Add (key: Syn: Combination index (CI) < 0.9; Add: 0.9 ≤ CI ≤ 1; Ant: CI > 1).

For `CC(=O)OC[C@]12C[C@H](OC(=O)CC(C)C)C(C)=C[C@H]1O[C@@H]1[C@H](O)[C@@H](O)[C@@]2(C)[C@]12CO2` [HT-2, HT-2 toxin], the “transport through the epithelial cell layers” value [7] is listed as ≤ 32%, the IC50 [8] is listed as 5.07 ± 0.46 nM and the IC50 [9] is listed as 21.2 ± 1.6 nM. For the same molecule, the IC50 [10] was 44.2 ± 2.26 nM, the “transepithelial transport, Apical Medium” value [1, 14] was 72.63±2.25^f % and the “transepithelial transport, Basolateral Medium” value [1, 14] was 49.18 ± 1.80^g %. The “transepithelial transport, Caco-2 Cells” value [1, 14] was 0.01 ± 0.00^a %, the “transepithelial transport, Raw 264.7 Cells” value [1, 14] was 0.01 ± 0.00^a % and the “transepithelial transport, Total” value [1, 14] was 121.83 ± 1.33^f %. For the same molecule, the IC50 [11] was 47.4 ± 1.29 nM, the “combination index, silibinin 1.7 µM” value [12] was 1.10 ± 0.02 Add and the “combination index, silibinin 3.4 µM” value [12] was 1.27 ± 0.11 Ant. The “combination index, silibinin 6.8 µM” value [12] was 1.57 ± 0.15 Ant, the “combination index, silibinin 13.6 µM” value [12] was 1.25 ± 0.08 Ant and the “combination index, silibinin 27.3 µM” value [12] was 1.06 ± 0.07 Add. The “combination index, silibinin 54.5 µM” value [12] was 1.03 ± 0.04 Add, the “combination index, silibinin 109.00 µM” value [12] was 1.08 ± 0.03 Add and the “type of interaction, silibinin 1.7 µM” value [12] was 1.10 ± 0.02 Add (key: Syn: Combination index (CI) < 0.9; Add: 0.9 ≤ CI ≤ 1; Ant: CI > 1). For the same molecule, the “type of interaction, silibinin 3.4 µM” value [12] was 1.27 ± 0.11 Ant (key: Syn: Combination index (CI) < 0.9; Add: 0.9 ≤ CI ≤ 1; Ant: CI > 1), the “type of interaction, silibinin 6.8 µM” value [12] was 1.57 ± 0.15 Ant (key: Syn: Combination index (CI) < 0.9; Add: 0.9 ≤ CI ≤ 1; Ant: CI > 1) and the “type of interaction, silibinin 13.6 µM” value [12] was 1.25 ± 0.08 Ant (key: Syn: Combination index (CI) < 0.9; Add: 0.9 ≤ CI ≤ 1; Ant: CI > 1). For the same molecule, the “type of interaction, silibinin 27.3 µM” value [12] was 1.06 ± 0.07 Add (key: Syn: Combination index (CI) < 0.9; Add: 0.9 ≤ CI ≤ 1; Ant: CI > 1), the “type of interaction, silibinin 54.5 µM” value [12] was 1.03 ± 0.04 Add (key: Syn: Combination index (CI) < 0.9; Add: 0.9 ≤ CI ≤ 1; Ant: CI > 1) and the “type of interaction, silibinin 109.00 µM” value [12] was 1.08 ± 0.03 Add (key: Syn: Combination index (CI) < 0.9; Add: 0.9 ≤ CI ≤ 1; Ant: CI > 1). The IC50 [13] was 30 nM, the IC50 ([3]; read-out: IC50 range in studied cells) was 5.07 to 47.4 nM and the “combination index … (6.58 nM)” value [4] was 0.54 ± 0.03 Syn. The “combination index … (3.87 nM)” value [4] was 0.67 ± 0.04 Syn, the “type of interaction … (6.58 nM)” value [4] was 0.54 ± 0.03 Syn (key: Syn: Combination index (CI) < 0.9; Add: 0.9 ≤ CI ≤ 1; Ant: CI > 1) and the “type of interaction … (3.87 nM)” value [4] was 0.67 ± 0.04 Syn (key: Syn: Combination index (CI) < 0.9; Add: 0.9 ≤ CI ≤ 1; Ant: CI > 1).
